Results on one compound are retold here after patent US7605154B2, “Substituted Thiazolo [4,5-d]pyrimidines as protein kinase inhibitors” (Janssen Pharmaceutica N.V., priority 2005, dated 2009).

Holding throughout (assay type): biochemical
The target in one experiment is T1, EGFR (Homo sapiens, UniProt P00533).
T1 construct: started at nucleotide 2189 (corresponding to amino acid 667) and ended at the termination codon; made in house; host or cells: Sf9 insect cells (baculovirus)
In words: EGFR Kinase Assay. Particulars: GST-EGFR, 5 μM ATP. Summed up:
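Baculovirus/Sf9-expressed GST-EGFR with biotinylated polyGluTyr substrate, 5 μM ATP plus γ-33P-ATP, in 50 mM Tris pH 8.0, 10 mM MgCl2, 0.1 mM vanadate, 1 mM DTT; 1 h at 30 °C.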

The next experiment concerns the target T2, c-Src kinase (Homo sapiens, UniProt P12931).
T2 construct: purchased Upstate Biotechnology, Lake Placid, N.Y
In words: c-Src Kinase Assay. Particulars: test concentration of 1 μM. Here is the method: A mixure of a 10× kinase buffer (80 mM MOPS at pH 7.0, 2 mM EDTA and 100 mM Magnesium Chloride), ATP (5 μM final from a 10 mM stock), a Cdc2 peptide […] (100 μM final from a 2.5 mM stock), γ-^33P ATP (10 μCi/μL stock) and water (20 μL/well) was added to each well of a Streptavidin Flashplate.
Test compound in 100% DMSO (0.5 μL) was added to the appropriate wells. Diluted c-Src kinase (human) (Upstate Biotechnology, Lake Placid, N.Y.) (diluted in a buffer consisting of 20 mM MOPS at pH 7.0, 1 mM EDTA, β-mercaptoethanol (0.1%), Brij-35 (0.01%), glycerol (5%), and 1 mg/mL bovine serum albumin) (2.5 μL) was added to the wells to initiate the reactions. The reaction plates were incubated at 30° C. for 40 min. The reaction was terminated by the addition of a 3% phosphoric acid solution (5 μL). The reaction product (10 μL) was spotted onto a P30 filtermat and washed for 5 minutes in phosphoric acid (75 mM). The wash sequence was repeated two more times, followed with one final wash in methanol. The plates were then dried, sealed and read on the TopCount scintillation counter after adding 30 μL scintillation fluid.
Percent inhibition was derived according to the procedure described in Example 5. The results for those compounds tested are shown in Table 2 at a test concentration of 1 μM.

The target in the next experiment is T3, Lyn kinase (Homo sapiens, UniProt P07948).
T3 construct: purchased Upstate biotechnology, Lake Placid, N.Y
In words: Lyn Kinase Assay. Particulars: test concentration of 1 μM. Here is the method: A mixture of a 10× kinase buffer (500 mM MOPS at pH 7.5, 1 mM EGTA, 1 mM Sodium Vanadate, 1% β-mercaptoethanol and 100 mM Magnesium Acetate), ATP (5 μM final from a 10 mM stock), polyGluTyr (0.1 mg/mL final from a 1 mg/mL stock), γ-^33P ATP (10 μCi/μL stock) and water (20 μL/well) was added to each well of a Streptavidin Flashplate.
Test compound in 100% DMSO (0.5 μL) was added to the appropriate wells. Diluted Lyn kinase (human) (Upstate biotechnology, Lake Placid, N.Y) (diluted in a buffer consisting of 50 mM Tris at pH 7.5, 0.1 mM EGTA, Sodium Vanadate (0.1 mM), β-mercaptoethanol (0.1%) and 1 mg/mL bovine serum albumin) (2.5 μL) was added to the wells to initiate the reactions.
The reaction plates were incubated at 30° C. for 40 min. The reaction was terminated by the addition of a 3% phosphoric acid solution (5 μL). The reaction product (10 μL) was spotted onto a P30 filtermat and washed for 5 minutes in phosphoric acid (75 mM). The wash sequence was repeated two more times, followed with one final wash in methanol. The plates were then dried, sealed and read on the TopCount scintillation counter after adding 30 μL scintillation fluid.
Percent inhibition was derived according to the procedure described in Example 5. The results for those compounds tested are shown in Table 3 at a test concentration of 1 μM.

A further experiment has as its target T4, c-Abl kinase (Homo sapiens, UniProt P00519).
T4 construct: purchased Upstate Biotechnology, Lake Placid, N.Y
The experiment in a line: c-Abl Kinase Assay. Particulars: test concentration of 1 μM; read-out: c-Abl percent inhibition. As for the experimental part: A mixture of a 10× kinase buffer (80 mM MOPS at pH 7.0, 2 mM EDTA and 100 mM Magnesium Acetate), ATP (5 μM final from a 10 mM stock), a peptide […] (50 μM final from a 0.5 mM stock), γ-^33P ATP (10 μCi/μL stock) and water is added to each well (20 μl/well) of a Streptavidin Flashplate.
Test compound in 100% DMSO (0.5 μL) is added to the appropriate wells. Diluted c-Abl kinase (human) (Upstate Biotechnology, Lake Placid, N.Y.) (diluted in a buffer consisting of 20 mM MOPS at pH 7.0, 1 mM EDTA, β-mercaptoethanol (0.1%), Brij-35 (0.01%), glycerol (5%) and 1 mg/ml bovine serum albumin) (2.5 μL) is added to the wells to initiate the reactions.
The reaction plates are incubated at 30° C. for 40 min. The reaction is terminated by the addition of a 3% phosphoric acid solution (5 μL). The reaction product (10 μL) is spotted onto a P30 filtermat and is washed for 5 minutes in phosphoric acid (75 mM). The wash sequence is repeated two more times and is followed with one final wash in methanol. The plates are then dried, sealed and read on the TopCount scintillation counter after 30 μL scintillation fluid is added.
The 1% percent inhibition value for Compound 64 was derived according to the procedure described in Example 5 at a test concentration of 1 μM.

T3 sequence (P07948 whole entry): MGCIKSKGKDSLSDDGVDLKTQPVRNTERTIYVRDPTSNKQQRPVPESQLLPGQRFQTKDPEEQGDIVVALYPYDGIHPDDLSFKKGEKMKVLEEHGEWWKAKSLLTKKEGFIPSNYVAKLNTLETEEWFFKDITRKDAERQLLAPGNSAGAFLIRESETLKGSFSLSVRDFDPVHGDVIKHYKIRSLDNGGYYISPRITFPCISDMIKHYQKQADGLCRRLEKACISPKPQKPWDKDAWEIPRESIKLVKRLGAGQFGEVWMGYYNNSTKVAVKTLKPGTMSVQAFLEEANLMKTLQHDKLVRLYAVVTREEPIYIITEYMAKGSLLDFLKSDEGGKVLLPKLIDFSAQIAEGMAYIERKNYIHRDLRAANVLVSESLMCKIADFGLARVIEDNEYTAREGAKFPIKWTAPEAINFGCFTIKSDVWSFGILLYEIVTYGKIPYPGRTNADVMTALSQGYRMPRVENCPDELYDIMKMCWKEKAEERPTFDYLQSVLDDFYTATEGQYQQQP
T2 sequence (P12931 whole entry): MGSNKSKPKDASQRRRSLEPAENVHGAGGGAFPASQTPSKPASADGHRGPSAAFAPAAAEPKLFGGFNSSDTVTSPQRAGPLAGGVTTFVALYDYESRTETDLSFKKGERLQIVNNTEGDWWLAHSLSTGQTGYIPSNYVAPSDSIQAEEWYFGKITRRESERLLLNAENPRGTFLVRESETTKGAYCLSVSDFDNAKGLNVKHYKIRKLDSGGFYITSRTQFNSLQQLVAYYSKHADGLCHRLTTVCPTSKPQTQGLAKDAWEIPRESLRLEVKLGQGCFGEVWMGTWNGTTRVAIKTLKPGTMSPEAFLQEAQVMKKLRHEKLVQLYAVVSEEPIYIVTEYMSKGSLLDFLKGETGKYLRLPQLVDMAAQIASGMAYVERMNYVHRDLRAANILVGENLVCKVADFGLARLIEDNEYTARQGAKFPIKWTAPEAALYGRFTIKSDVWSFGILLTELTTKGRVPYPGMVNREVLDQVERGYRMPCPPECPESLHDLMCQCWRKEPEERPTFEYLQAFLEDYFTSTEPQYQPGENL
T1 sequence (P00533 667-1210 limits assumed): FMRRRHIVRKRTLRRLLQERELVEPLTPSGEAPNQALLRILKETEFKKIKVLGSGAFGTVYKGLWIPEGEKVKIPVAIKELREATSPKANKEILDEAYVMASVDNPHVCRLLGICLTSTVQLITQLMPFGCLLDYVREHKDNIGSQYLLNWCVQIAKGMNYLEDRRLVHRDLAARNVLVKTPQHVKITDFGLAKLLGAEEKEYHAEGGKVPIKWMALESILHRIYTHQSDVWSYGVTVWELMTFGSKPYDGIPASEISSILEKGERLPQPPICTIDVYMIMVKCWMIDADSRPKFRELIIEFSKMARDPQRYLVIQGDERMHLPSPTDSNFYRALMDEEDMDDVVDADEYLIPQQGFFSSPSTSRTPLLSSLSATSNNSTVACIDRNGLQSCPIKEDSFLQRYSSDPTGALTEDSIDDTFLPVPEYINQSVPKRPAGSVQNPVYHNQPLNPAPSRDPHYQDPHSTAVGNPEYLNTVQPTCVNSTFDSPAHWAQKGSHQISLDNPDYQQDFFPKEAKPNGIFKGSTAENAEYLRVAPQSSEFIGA
T4 sequence (P00519 whole entry): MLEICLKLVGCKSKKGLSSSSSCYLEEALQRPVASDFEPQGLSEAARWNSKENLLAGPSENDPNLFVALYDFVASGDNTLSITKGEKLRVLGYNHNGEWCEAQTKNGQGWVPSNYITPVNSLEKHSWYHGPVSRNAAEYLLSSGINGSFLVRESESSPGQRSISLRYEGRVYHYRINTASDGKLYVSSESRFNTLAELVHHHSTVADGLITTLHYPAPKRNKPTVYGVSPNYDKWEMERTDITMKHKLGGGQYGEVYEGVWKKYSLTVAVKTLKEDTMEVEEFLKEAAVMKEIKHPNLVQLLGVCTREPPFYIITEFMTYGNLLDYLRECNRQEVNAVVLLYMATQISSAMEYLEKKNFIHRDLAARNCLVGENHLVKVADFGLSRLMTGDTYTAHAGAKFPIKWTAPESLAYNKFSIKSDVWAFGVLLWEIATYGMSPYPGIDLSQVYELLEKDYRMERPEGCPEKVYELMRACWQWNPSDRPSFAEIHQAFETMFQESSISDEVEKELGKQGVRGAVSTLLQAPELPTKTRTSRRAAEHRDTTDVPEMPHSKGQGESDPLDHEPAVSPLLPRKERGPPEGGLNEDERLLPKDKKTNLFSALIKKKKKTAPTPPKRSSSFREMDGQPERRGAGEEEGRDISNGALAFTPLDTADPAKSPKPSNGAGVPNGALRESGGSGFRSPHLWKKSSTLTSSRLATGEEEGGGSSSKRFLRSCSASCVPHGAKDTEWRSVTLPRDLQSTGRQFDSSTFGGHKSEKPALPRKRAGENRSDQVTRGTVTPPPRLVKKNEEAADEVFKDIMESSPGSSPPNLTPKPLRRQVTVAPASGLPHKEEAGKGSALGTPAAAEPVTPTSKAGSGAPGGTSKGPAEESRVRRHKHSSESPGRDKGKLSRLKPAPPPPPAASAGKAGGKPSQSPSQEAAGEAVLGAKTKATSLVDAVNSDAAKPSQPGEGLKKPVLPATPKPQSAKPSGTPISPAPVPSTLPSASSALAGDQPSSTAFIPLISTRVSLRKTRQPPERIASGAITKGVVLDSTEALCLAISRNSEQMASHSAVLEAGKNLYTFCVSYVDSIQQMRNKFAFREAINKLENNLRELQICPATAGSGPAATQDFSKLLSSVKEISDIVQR

As for `C#Cc1cccc(Nc2ncnc3nc(Nc4ccc(CNC[C@H]5CCCO5)cc4)sc23)c1` [Cpd 64, N^7-(3-ethynyl-phenyl)-N^2-(4-{[(2R)-(tetrahydro-furan-2-ylmethyl)-amino]-methyl}-phenyl)-thiazolo[4,5-d]pyrimidine-2,7-diamine], at EGFR, the IC50 (commonly the point on the concentration scale where inhibition reaches its midpoint) came out at 3.96 nM. For the same compound, the inhibition (in general, how much of the control response was suppressed) at 1 µM against c-Src kinase was 21%; against Lyn kinase, 17%; on c-Abl kinase, 1%.
